Legend:
[1] = Acute toxicity after oral administration; conditions: mouse, in vivo; oral administration to male mice, estimated a week after administration
Excerpt: Unlike those of the hypertonic solutions of glycerol or mannitol, the therapeutic effect of the propanol derivative (I) of the present invention is not ascribable to the cerebral dehydrating effect. The propanol derivative (I) may be used for the treatment or prophylaxis of increased intracranial pressure during and after brain surgical operation. Moreover, the propanol derivative (I) may be used for improving impaired consciousness, nervous disturbance and subjective symptoms (e.g., headache, nausea, vomiting) which are attributed to the cerebral diseases such as those mentioned hereinbefore. Further, whereas it is known that cerebral edema induces an increase in intracranial pressure and increased intracranial pressure serves to cause a build-up of edema which in turn impairs cerebral circulation, the propanol derivative (I) can interrupt such vicious cycle of cerebral diseases because of its potent intracranial pressure-lowering effect and ameliorate the cerebral circulatory impairment. The toxicity of the propanol derivative (I) of the invention is low.

Male SD-strain rats = assay: Effect on intracranial pressure (cerebrospinal fluid pressure in the cisterna magna) in urethane-anesthetized rats after oral administration; format: in vivo; conditions: 8 mg/kg orally
Protocol: Male SD-strain rats weighing […] (each group consisiting of 5 rats) were fasted for about 20 hours, and anesthetized with urethane. 1-(4-acetamido-2-methoxyphenoxy)-3-[4-(3-fluorophenyl)piperazino]-2-propanol (free base) was administered orally to the rats at a dose of 8 mg/kg. Intracranial pressure (i.e., cerebrospinal fluid pressure in the cisterna magna) was continuously monitored via a cannula inserted in the cisterna magna. The cannula was connected to a transducer, and recordings were made on graph paper. The effect of said test compound on the intracranial pressure was estimated in terms of the increase or decrease in intracranial pressure, which was calculated in accordance with the following formula: [formula]

## COc1cc(NC(C)=O)ccc1OCC(O)CN1CCN(c2cccc(F)c2)CC1 (stereo not shown) [1-(4-acetamido-2-methoxyphenoxy)-3-[4-(3-fluorophenyl)piperazino]-2-propanol]
[1]
  LD50 at 168 h: ~1500 mg/kg
Male SD-strain rats; 20 minutes after administration, pre-dose pressure = 100 (70 ± 3.1 mm H2O), 5 rats
  Changes in intracranial pressure (%): 85.4%
Male SD-strain rats; 60 minutes after administration, pre-dose pressure = 100
  Changes in intracranial pressure (%): 83.5%
Male SD-strain rats; 120 minutes after administration, pre-dose pressure = 100
  Changes in intracranial pressure (%): 77.7%
Male SD-strain rats; 180 minutes after administration, pre-dose pressure = 100
  Changes in intracranial pressure (%): 76.5%
Male SD-strain rats; 240 minutes after administration, pre-dose pressure = 100
  Changes in intracranial pressure (%): 75.6%
Male SD-strain rats; 300 minutes after administration, pre-dose pressure = 100
  Changes in intracranial pressure (%): 77.9%

Source: patent EP0067897A1, “A pharmaceutical composition for use in raised intracranial pressure” (Tanabe Seiyaku Co., Ltd., priority 1981, dated 1982)
